Legend:
Experiment in all cases: relative viability (nuclei count vs DMSO), 5 days (fraction); higher = more cells survive
HCC-15 = test system: HCC-15
Procedure, shortened: (§1)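 One day after seeding in 1536-well plates, lung cancer cell lines were dosed by pin tool. Dosing was either single-drug or a fixed anchor-drug dose plus five library-drug doses (not always all listed) in √10 steps. After 5 days, nuclei were stained in one fix-and-stain step and counted on 4× images, and relative viability is the nuclei count of treated wells over that of vehicle wells, given as the median of duplicate plates.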

LCLC-103H = test system: LCLC-103H
Procedure, shortened: as §1

NCI-H1648 = test system: NCI-H1648
Procedure, shortened: as §1

NCI-H522 = test system: NCI-H522
Procedure, shortened: as §1

UMC-11 = test system: UMC-11
Procedure, shortened: as §1

NCI-H1703 = test system: NCI-H1703
Procedure, shortened: as §1

A549 = test system: A549
Procedure, shortened: as §1

Row | Structure (SMILES) | relative viability (HCC-15; first compound 0.04 µM) | relative viability (HCC-15; first compound 0.1265 µM) | relative viability (HCC-15; first compound 0.4 µM) | relative viability (HCC-15; first compound 1.265 µM) | relative viability (LCLC-103H; first compound 0.04 µM) | relative viability (LCLC-103H; first compound 0.1265 µM) | relative viability (LCLC-103H; first compound 0.4 µM) | relative viability (LCLC-103H; first compound 1.265 µM) | relative viability (NCI-H1648; first compound 0.04 µM) | relative viability (NCI-H1648; first compound 0.1265 µM) | relative viability (NCI-H1648; first compound 0.4 µM) | relative viability (NCI-H522; first compound 0.04 µM) | relative viability (NCI-H522; first compound 0.1265 µM) | relative viability (NCI-H522; first compound 0.4 µM) | relative viability (NCI-H522; first compound 1.265 µM) | relative viability (UMC-11; first compound 0.04 µM) | relative viability (UMC-11; first compound 0.1265 µM) | relative viability (UMC-11; first compound 0.4 µM) | relative viability (UMC-11; first compound 1.265 µM) | relative viability (NCI-H1703; first compound 0.1265 µM) | relative viability (NCI-H1703; first compound 0.4 µM) | relative viability (NCI-H1703; first compound 1.265 µM) | relative viability (A549; first compound 0.04 µM) | relative viability (A549; first compound 0.1265 µM) | relative viability (A549; first compound 0.4 µM) | relative viability (A549; first compound 1.265 µM)
1 | O=C(O)c1ccc(-c2c[nH]c3ncc(-c4ccccc4)cc23)cc1C1CCCC1 + CC(=O)Nc1cccc(-n2c(=O)n(C3CC3)c(=O)c3c(Nc4ccc(I)cc4F)n(C)c(=O)c(C)c32)c1 [Trametinib] (partner 0.02 µM) | 0.396 | 0.395 | 0.409 | 0.351 | 0.65 | 0.697 | 0.68 | 0.644 | 0.589 | 0.448 | 0.494 | 0.696 | 0.761 | 0.763 | 0.768 | 0.702 | 0.719 | 0.711 | 0.641 |  |  |  |  |  |  | 
2 | O=C(O)c1ccc(-c2c[nH]c3ncc(-c4ccccc4)cc23)cc1C1CCCC1 + CC(=O)c1c(C)c2cnc(Nc3ccc(N4CCNCC4)cn3)nc2n(C2CCCC2)c1=O [Palbociclib] (partner 0.5 µM) | 0.793 | 0.762 | 0.631 | 0.431 | 0.412 | 0.486 | 0.465 | 0.469 | 0.285 | 0.294 | 0.27 | 0.977 | 1.02 | 1.06 | 1.1 | 0.286 | 0.312 | 0.333 | 0.332 |  |  |  |  |  |  | 
3 | O=C(O)c1ccc(-c2c[nH]c3ncc(-c4ccccc4)cc23)cc1C1CCCC1 + NC(=O)Nc1cc(-c2cccc(F)c2)sc1C(=O)N[C@H]1CCCNC1 [AZD7762] (partner 0.2 µM) | 1.22 | 1.45 | 1.42 | 1.03 | 0.832 | 0.822 | 0.846 | 0.759 | 0.687 | 0.716 | 0.82 | 0.662 | 0.896 | 0.785 | 0.882 |  |  |  |  | 0.0651 | 0.148 | 0.135 |  |  |  | 
4 | O=C(O)c1ccc(-c2c[nH]c3ncc(-c4ccccc4)cc23)cc1C1CCCC1 + Nc1nc2[nH]cc(CCc3ccc(C(=O)N[C@@H](CCC(=O)O)C(=O)O)cc3)c2c(=O)[nH]1 [Pemetrexed] (partner 0.2 µM) | 0.206 | 0.227 | 0.215 | 0.188 | 0.487 | 0.463 | 0.495 | 0.481 | 0.732 | 0.853 | 0.681 | 0.829 | 1.04 | 0.812 | 0.928 | 0.703 | 0.719 | 0.693 | 0.653 |  |  |  |  |  |  | 
5 | O=C(O)c1ccc(-c2c[nH]c3ncc(-c4ccccc4)cc23)cc1C1CCCC1 + Nc1ncn([C@H]2C[C@H](O)[C@@H](CO)O2)c(=O)n1 [Decitabine] (partner 2 µM) | 0.641 | 0.673 | 0.608 | 0.381 | 0.767 | 0.789 | 0.746 | 0.667 | 0.587 | 0.599 | 0.569 | 0.662 | 0.593 | 0.591 | 0.602 | 0.653 | 0.565 | 0.497 | 0.626 |  |  |  | 0.291 | 0.265 | 0.277 | 0.251

Source: the supplement of paper PMC10307832
